Read-outs that look alike come from different tables or passages of the source.
Columns and labels:
[1] = system: 60 cancer cell lines (NCI 60 cancer cell line series); assay: NCI-DTP in vitro cancer screen, sulforhodamine B (SRB) growth inhibition, 48 hour exposure; type: cell-based, human; design: key to sensitivity class Ovarian OVCAR-8 CL6005 / sensitivity class Ovarian SK-OV-3 CL6011 / sensitivity class Prostate DU-145 CL11003 / sensitivity class NSCLC NCI-H522 CL1003 / sensitivity class Ovarian IGROV1 CL6010 / sensitivity class Ovarian OVCAR-4 CL6002 / sensitivity class Prostate PC-3(I) CL11001 / sensitivity class Renal A498 CL9013 / sensitivity class Renal SN12C CL9008: sensitivity class: 1 = Low, 2 = Medium, 3 = High
In short: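 Values come from the NCI-DTP screen database: -log GI50, the concentration giving 50% growth inhibition, derived from SRB cell-mass dose-response curves. Each line seeded at its own density, treated day 1 at five ten-fold-spaced doses in duplicate wells, stained after 48 h.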

[2] = system: 60 cancer cell lines (NCI 60 cancer cell line series); details: cited from earlier work

For COc1cc([C@@H]2c3cc4c(cc3[C@@H](O[C@@H]3O[C@@H]5CO[C@@H](C)O[C@H]5[C@H](O)[C@H]3O)[C@H]3COC(=O)[C@H]23)OCO4)cc(OC)c1O [Etoposide], the “classification of cell line as Low(1), Medium(2) or High(3) sensitivity to compound” value (“classification of cell line” for short) ([1]; Breast BT-549 (CL5013)) was 2, the “classification of cell line” value ([1]; Breast HS-578T CL5006) was 3 and the “classification of cell line” value ([1]; Breast MCF7(I) (CL5001)) was 2. The “classification of cell line” value ([1]; Breast MCF7/ADRr (CL5002)) was 1, the “classification of cell line” value ([1]; Breast MDA-MB-231 CL5005) was 2 and the “classification of cell line” value ([1]; Breast MDA-MB-435 (CL5011)) was 2. For the same molecule, the “classification of cell line” value ([1]; Breast MDA-N CL5012) was 3, the “classification of cell line” value ([1]; Breast T-47D (CL5014)) was 3 and the “classification of cell line” value ([1]; CNS SF-268 CL12014) was 2. For the same molecule, the “classification of cell line” value ([1]; CNS SF-295 CL12015) was 2, the “classification of cell line” value ([1]; CNS SF-539 CL12016) was 2 and the “classification of cell line” value ([1]; CNS SNB-19 (CL12002)) was 2. For the same molecule, the “classification of cell line” value ([1]; CNS SNB-75(I) CL12005) was 2, the “classification of cell line” value ([1]; CNS U251(I) CL12009) was 2 and the “classification of cell line” value ([1]; Colon COLO-250 CL4010) was 1. The “classification of cell line” value ([1]; Colon HCC-2998 (CL4002)) was 2, the “classification of cell line” value ([1]; Colon HCT-15 CL4015) was 2 and the “classification of cell line” value ([1]; Colon HCT-116 (CL4003)) was 2. The “classification of cell line” value ([1]; Colon HT29(I) CL4001) was 1, the “classification of cell line” value ([1]; Colon KM12 (CL4017)) was 2 and the “classification of cell line” value ([1]; Colon SW-620 (CL4009)) was 2. The “classification of cell line” value ([1]; Leukemia CCRF-CEM(I) (CL7003)) was 2, the “classification of cell line” value ([1]; Leukemia HL-60(I) (CL7008)) was 2 and the “classification of cell line” value ([1]; Leukemia K562(I) CL7005) was 2. For the same molecule, the “classification of cell line” value ([1]; Leukemia MOLT-4 (CL7006)) was 3, the “classification of cell line” value ([1]; Leukemia RPMI-8226(I) (CL7010)) was 2 and the “classification of cell line” value ([1]; Leukemia SR CL7019) was 3. The “classification of cell line” value ([1]; Melanoma LOX IMVI CL10001) was 2, the “classification of cell line” value ([1]; Melanoma M14 (CL10014)) was 3 and the “classification of cell line” value ([1]; Melanoma MALME-3M CL10002) was 2. For the same molecule, the “sensitivity class NSCLC NCI-H23(I) CL1001” value ([1]; cell line NSCLC NCI-H23(I), CL1001) was 2, the “sensitivity class NSCLC NCI-H332M CL1017” value ([1]; cell line NSCLC NCI-H332M, CL1017) was 1 and the “sensitivity class NSCLC NCI-H460 CL1021” value ([1]; cell line NSCLC NCI-H460, CL1021) was 3. The “sensitivity class NSCLC NCI-H522 CL1003” value ([1]; cell line NSCLC NCI-H522, CL1003) was 2, the “sensitivity class Ovarian IGROV1 CL6010” value ([1]; cell line Ovarian IGROV1, CL6010) was 1 and the “sensitivity class Ovarian OVCAR-3 CL6001” value ([1]; cell line Ovarian OVCAR-3, CL6001) was 1. For the same molecule, the “sensitivity class Ovarian OVCAR-4 CL6002” value ([1]; cell line Ovarian OVCAR-4, CL6002) was 1, the “sensitivity class Ovarian OVCAR-5 CL6003” value ([1]; cell line Ovarian OVCAR-5, CL6003) was 1 and the “sensitivity class Ovarian OVCAR-8 CL6005” value ([1]; cell line Ovarian OVCAR-8, CL6005) was 2. The “sensitivity class Ovarian SK-OV-3 CL6011” value ([1]; cell line Ovarian SK-OV-3, CL6011) was 2, the “sensitivity class Prostate DU-145 CL11003” value ([1]; cell line Prostate DU-145, CL11003) was 3 and the “sensitivity class Prostate PC-3(I) CL11001” value ([1]; cell line Prostate PC-3(I), CL11001) was 3. For the same molecule, the “sensitivity class Renal 786-O CL9018” value ([1]; cell line Renal 786-O, CL9018) was 2, the “sensitivity class Renal A498 CL9013” value ([1]; cell line Renal A498, CL9013) was 2 and the “sensitivity class Renal ACHN CL9023” value ([1]; cell line Renal ACHN, CL9023) was 3. For the same molecule, the “sensitivity class Renal CAKI-1 CL9015” value ([1]; cell line Renal CAKI-1, CL9015) was 2, the “sensitivity class Renal RXF-393 CL9016” value ([1]; cell line Renal RXF-393, CL9016) was 2 and the “sensitivity class Renal SN12C CL9008” value ([1]; cell line Renal SN12C, CL9008) was 2. The “sensitivity class Renal TK10 CL9024” value ([1]; cell line Renal TK10, CL9024) was 2, the “sensitivity class Renal UO-31 CL9004” value ([1]; cell line Renal UO-31, CL9004) was 1 and the “-Log (GI50)” value ([2]; Breast BT-549 (CL5013)) was 5.6. The “-Log (GI50)” value ([2]; Breast HS-578T CL5006) was 6.1, the “-Log (GI50)” value ([2]; Breast MCF7(I) (CL5001)) was 5.4 and the “-Log (GI50)” value ([2]; Breast MCF7/ADRr (CL5002)) was 3.9. The “-Log (GI50)” value ([2]; Breast MDA-MB-231 CL5005) was 5.8, the “-Log (GI50)” value ([2]; Breast MDA-MB-435 (CL5011)) was 4.5 and the “-Log (GI50)” value ([2]; Breast MDA-N CL5012) was 6.0. For the same molecule, the “-Log (GI50)” value ([2]; Breast T-47D (CL5014)) was 6.0, the “-Log (GI50)” value ([2]; CNS SF-268 CL12014) was 4.8 and the “-Log (GI50)” value ([2]; CNS SF-295 CL12015) was 5.0. For the same molecule, the “-Log (GI50)” value ([2]; CNS SF-539 CL12016) was 5.2, the “-Log (GI50)” value ([2]; CNS SNB-19 (CL12002)) was 4.8 and the “-Log (GI50)” value ([2]; CNS SNB-75(I) CL12005) was 4.8. The “-Log (GI50)” value ([2]; CNS U251(I) CL12009) was 5.2, the “-Log (GI50)” value ([2]; Colon COLO-250 CL4010) was 4.2 and the “-Log (GI50)” value ([2]; Colon HCC-2998 (CL4002)) was 4.7. For the same molecule, the “-Log (GI50)” value ([2]; Colon HCT-15 CL4015) was 4.5, the “-Log (GI50)” value ([2]; Colon HCT-116 (CL4003)) was 4.6 and the “-Log (GI50)” value ([2]; Colon HT29(I) CL4001) was 4.2. The “-Log (GI50)” value ([2]; Colon KM12 (CL4017)) was 4.5, the “-Log (GI50)” value ([2]; Colon SW-620 (CL4009)) was 4.9 and the “-Log (GI50)” value ([2]; Leukemia CCRF-CEM(I) (CL7003)) was 5.6. The “-Log (GI50)” value ([2]; Leukemia HL-60(I) (CL7008)) was 5.7, the “-Log (GI50)” value ([2]; Leukemia K562(I) CL7005) was 4.6 and the “-Log (GI50)” value ([2]; Leukemia MOLT-4 (CL7006)) was 6.0. For the same molecule, the “-Log (GI50)” value ([2]; Leukemia RPMI-8226(I) (CL7010)) was 5.4, the “-Log (GI50)” value ([2]; Leukemia SR CL7019) was 6.7 and the “-Log (GI50)” value ([2]; Melanoma LOX IMVI CL10001) was 5.3. The “-Log (GI50)” value ([2]; Melanoma M14 (CL10014)) was 6.1, the “-Log (GI50)” value ([2]; Melanoma MALME-3M CL10002) was 4.7 and the “-Log (GI50)” value ([2]; NCSLC NCI-H522 CL1003) was 5.1. The “-Log (GI50)” value ([2]; NSCLC NCI-H23(I) CL1001) was 5.1, the “-Log (GI50)” value ([2]; NSCLC NCI-H332M CL1017) was 3.8 and the “-Log (GI50)” value ([2]; NSCLC NCI-H460 CL1021) was 6.0. For the same molecule, the “-Log (GI50)” value ([2]; Ovarian IGROV1 CL6010) was 4.2, the “-Log (GI50)” value ([2]; Ovarian OVCAR-3 CL6001) was 4.2 and the “-Log (GI50)” value ([2]; Ovarian OVCAR-4 CL6002) was 3.8. The “-Log (GI50)” value ([2]; Ovarian OVCAR-5 CL6003) was 4.3, the “-Log (GI50)” value ([2]; Ovarian OVCAR-8 CL6005) was 4.8 and the “-Log (GI50)” value ([2]; Ovarian SK-OV-3 CL6011) was 4.5. For the same molecule, the “-Log (GI50)” value ([2]; Prostate DU-145 CL11003) was 6.1, the “-Log (GI50)” value ([2]; Prostate PC-3(I) CL11001) was 6.2 and the “-Log (GI50)” value ([2]; Renal 786-O CL9018) was 5.9. The “-Log (GI50)” value ([2]; Renal A498 CL9013) was 4.7, the “-Log (GI50)” value ([2]; Renal ACHN CL9023) was 6.1 and the “-Log (GI50)” value ([2]; Renal CAKI-1 CL9015) was 5.2. For the same molecule, the “-Log (GI50)” value ([2]; Renal RXF-393 CL9016) was 4.8, the “-Log (GI50)” value ([2]; Renal SN12C CL9008) was 5.0 and the “-Log (GI50)” value ([2]; Renal TK10 CL9024) was 5.3. For the same molecule, the “-Log (GI50)” value ([2]; Renal UO-31 CL9004) was 4.1.

From patent publication US20020051978A1, “Methods and compositions for the identification, assessment, prevention and therapy of human cancers” (priority 2000, published 2002)
